The values below come from patent US20210169848A1, “USE OF NEUROKININ-1 ANTAGONISTS TO TREAT PRURITUS” (VYNE THERAPEUTICS INC., priority 2018, published 2021).

For data set [1] the following is noted: cited from earlier work.
The next data set has as its system patients with pruritus. Kind of data set: Pooled clinical studies, age-related effects of serlopitant (NRS change, NRS 4-point responder rate). In kind it is in vivo, human. The settings on record: older patients (e.g., 40 years or older) compared with younger patients; pooled 1 mg and 5 mg. As to the method: Data obtained from the clinical studies described in Examples 6-8 for patients administered 1 mg and 5 mg serlopitant were pooled and evaluated on the basis of the age of the subjects.

Data set [2] has as its system subjects with idiopathic pruritus. Kind of data set: Phase II randomized, double-blind, placebo-controlled clinical study of serlopitant for chronic pruritus (post hoc WI-NRS 4-point responder analysis). In kind it is in vivo, human. The settings on record: for WI-NRS 4-point Responder Rate at Week 6: 6 weeks, 3-tablet loading dose Day 1.

Take `C[C@@H](O[C@H]1CC[C@@H]2CN(C3=CC(=O)CC3)C[C@H]2[C@@H]1c1ccc(F)cc1)c1cc(C(F)(F)F)cc(C(F)(F)F)c1` [Form I]: the “thermodynamic stability of polymorph” value in data set [1] (Form I relative to Form II of free base serlopitant) is “thermodynamically more stable below 70 °C”. Besides, the hygroscopicity entry in data set [1] (all tested relative humidity conditions) is “non-hygroscopic”.

Consider `CC(O[C@H]1CC[C@@H]2CN(C3=CC(=O)CC3)C[C@H]2[C@@H]1c1ccc(F)cc1)c1cc(C(F)(F)F)cc(C(F)(F)F)c1` (stereo partly drawn) [serlopitant, 3-[(3aR,4R,5S,7aS)-5-[(1R)-1-[3,5-bis(trifluoromethyl)phenyl]cthoxy]-4-(4-fluorophenyI)-1,3,3a,4,5,6,7,7a-octahydroisoindol-2-yl]cyclopent-2-en-1-one], for which, in the data set with patients with pruritus, the “response to serlopitant therapy as function of age (NRS change from baseline, NRS 4-point Responder Rate)” value is reported as “responded better”. Further, the “WI-NRS 4-point Responder Rate at Week 6” value is 38.5% (n = 52) in data set [2] (all patients, 0.25 mg once daily oral); 32.7% (n = 55) in data set [2] (all patients, 1 mg once daily oral); 46.2% (n = 52) in data set [2] (all patients, 5 mg once daily oral); 30.8% (n = 26) in data set [2] (patients with inflammatory skin disease, 0.25 mg once daily oral); 29.6% (n = 27) in data set [2] (patients with inflammatory skin disease, 1 mg once daily oral); 33.3% (n = 18) in data set [2] (patients with inflammatory skin disease, 5 mg once daily oral). Besides, the “WI-NRS 4-point Responder Rate at Week 6” value in data set [2] (patients without inflammatory skin disease, 0.25 mg once daily oral) was 46.2% (n = 26); in data set [2] (patients without inflammatory skin disease, 1 mg once daily oral) it was 35.7% (n = 28); in data set [2] (patients without inflammatory skin disease, 5 mg once daily oral), 52.9% (n = 34). For the same compound, the “response to serlopitant therapy, patients without vs with inflammatory skin disease” value in data set [2] (patients without inflammatory skin disease compared with patients with inflammatory skin disease) is “appeared to respond better”.
